Values quoted from earlier work, collected in patent publication US20210379028A1, “TREATMENT OF DEPRESSIVE DISORDERS” (Ovid Therapeutics Inc., priority 2017, published 2021).

Tests used:
[1] = patients with severe major depressive disorder, combined with escitalopram
[2] = three-month efficacy study, treatment of insomnia
[3] = patients with a history of drug abuse who received gaboxadol

Oc1noc2c1CCNC2 [gaboxadol, 4,5,6,7-tetrahydroisoxazolo [5,4-c] pyridine-3-ol]
benefit of combining gaboxadol with escitalopram over escitalopram alone [1]: no additional benefit | effects in sleep onset and sleep maintenance [2]: failed to show significant effects | psychiatric adverse events [3]: steep increase
